Assay: Human HepG2 cell viability assay in 384 well format
Format: toxicity, cell-based
Design: dose 125 nL, time 70.5 hour; cytotoxicity at 70.5 h: concentration not given beside the values
Details: HepG2 cells, read-out: Inhibition

Row | Structure (SMILES) | cytotoxicity at 70.5 h [%]
1 | CCCc1nc(C(=O)N(C)Cc2cc(CC)no2)cs1 | 0.552
2 | CCn1nc(C)c2nc(C(C)C)nc(NCCc3ccc(O)cc3)c21 | -7.1
3 | Cc1ncc2c(n1)CN(CCOCC(F)(F)F)CC2 | -4.14
4 | COc1cc(C(=O)NC(CC(=O)O)c2cccs2)cc(OC)c1C (stereo not drawn) | -6.87
5 | CC(=O)N1CC[C@H]2OCC[C@@]2(C(=O)NCCc2ccccn2)C1 | 4.18
6 | CC(C)c1cnc(CN2CCCS2(=O)=O)o1 | -1.78
7 | CS(=O)(=O)N1CCN(C(=O)Cn2ccc3c(Cl)cccc32)CC1 | 8.68
8 | COc1ccc(NC(=O)Cn2nc(C)c(C(C)=O)c2C)cc1 | 2.67
9 | CCC[C@H]1CN(S(=O)(=O)c2ccc(CC)s2)C[C@@H]1N | 18.1
10 | CN(C)CCn1ccnc1C1CCN(C(=O)CCc2cccnc2)CC1 | -4.1
11 | O=C(NCC1(O)CCOc2ccccc21)Nc1ccc2c(c1)OCO2 (stereo not drawn) | 0.267
12 | O=C(CCCc1ccccn1)N1CCSC2(CCCCC2)C1 | 18.8
13 | O=C1C[C@H]2CC[C@@H](CN1)N2C(=O)CCc1ccsc1 | -9.38
14 | O=C(O)c1cnc(N2CCC(O)CC2)nc1COc1cccc(F)c1 | -12.9
15 | Cc1ccc(-c2nnc(NC(=O)c3ccn(C)c(=O)c3)[nH]2)s1 | -19.1
16 | O=S(=O)(C1CC1)N1CCO[C@H]2[C@H](OCCN3CCCC3)CC[C@@H]21 | 23.9
17 | COC(=O)c1ccc(NC(=O)CN2CCCCC2C2OCCO2)cc1 (stereo not drawn) | 0.785
18 | Cc1cc(CN2CC[C@H]3C[C@@H](c4nc(C5CC5)cs4)O[C@@H]3C2)no1 | -2.95
19 | Cc1ccccc1CN(CCN(C)C)Cc1ccc(C(=O)O)cc1 | -5.98
20 | Cc1ncc(CNCC(=O)NC2CCCCC2)n1-c1ccccc1 | 9.11
21 | NS(=O)(=O)CCNC(=O)c1cc2ccccc2nc1N1CCCC1 | -5.72
22 | O=S(=O)(NC[C@H]1C[C@@H]2CCN1C[C@@H]2CN1CCCCC1)c1ccccc1 | -6.11
23 | COc1c(CNC2CCc3c(F)cccc32)c(C)nn1C (stereo not drawn) | -7.24

Row | Structure (SMILES) | cytotoxicity at 70.5 h [%]
24 | CCC(NC(=O)C(C)C)c1ccccc1C (stereo not drawn) | -5.31
25 | O=C(Cn1ccc2ccc(Cl)cc21)/N=c1\[nH]nc(C2CCCO2)s1 (stereo not drawn) | -2.63
26 | O=C(Nc1c(N2CCCC2)cccc1N1CCCC1)c1ccccn1 | -12.8
27 | O=C(CN1CCCc2cc(F)cc(F)c21)Nc1ccc(Br)cn1 | -3.51
28 | COCCN1C[C@H]2CN(Cc3cccc(OC(F)(F)F)c3)CCN2C1=O | -7.08
29 | O=C1[C@@H]2CN(Cc3ccccn3)C[C@H]2CCN1c1cncnc1 | -4.74
30 | Cc1nnc(N2CCOC(CN(C)C)C2)c(C#N)c1C (stereo not drawn) | -6.93
31 | c1ccc(-n2ccnc2)c(CNCC2CNc3ccnn3C2)c1 (stereo not drawn) | -20.8
32 | COc1ccc(C(=O)N2CC[C@](C)(O)[C@H](C)C2)cc1N1CCOCC1 | -8.2
33 | c1cncc(N2CCCC3(CCN(CC4CCCO4)CC3)C2)c1 (stereo not drawn) | -7.19
34 | Cc1nn(CC(=O)N2CCN(Cc3cnn(C)c3C)CC2)cc1Cl | -9.22
35 | O=S(=O)(Cc1ccc(F)cc1)NCc1ccco1 | -2.47
36 | CCn1cc(CN2CCCN(C(=O)C3(C#N)CCCCC3)CC2)cn1 | 17.8
37 | CCN1CCn2c(C)cnc2C12CCN(C(=O)c1ccc(Cl)cc1)CC2 | -11.3
38 | N#Cc1cccc(C(=O)N2C[C@H]3CC[C@@H]2CN(C(=O)C2CCC2)C3)c1 | -4.08
39 | O=C(c1ccc[nH]1)N1CCn2cc(Cn3cncn3)nc2C1 | -9.02
40 | Cc1nccc(-c2ccccc2)c1C(=O)N1CCC2(CCCO2)CC1 | 2.47
41 | Cc1ccccc1NC(=O)N1CC[C@@H]2CN(CC(C)C)S(=O)(=O)[C@@H]2CC1 | -9.9
42 | COc1ccc(CN(C)[C@@H]2CN(C(=O)c3cccs3)C[C@H]2O)cc1 | -6.31
43 | Cc1ncnc(N2CCN(C(=O)C3CC4(CCNCC4)CN3)CC2)c1C (stereo not drawn) | 13.5
44 | COCCN1CCc2ncnc(-c3ccccc3)c2CC1 | -5.42
45 | C1CC(NCc2nnc(C3CC3)o2)CN(Cc2noc(C3CC3)n2)C1 (stereo not drawn) | -7.51
46 | COc1cccc2c1N(Cc1noc(C(C)(C)C)n1)CCC2 | 18.5

Row | Structure (SMILES) | cytotoxicity at 70.5 h [%]
47 | COc1nn(C)c2c1CCCN(S(=O)(=O)c1ccccc1F)C2 | -1.52
48 | Cc1cc(N)n(-c2ccc3nnc(C)n3n2)n1 | 6.51
49 | CN(C)c1ncccc1CNC(=O)NCc1ccc(Cl)s1 | -10.4
50 | Cc1cc(N2CCN(Cc3ccccc3)CC(O)C2)nc(N)n1 (stereo not drawn) | -2.11
51 | O=S(=O)(N1CCN(CC2CC2)CC1)N1CCCC1c1ccco1 (stereo not drawn) | -5.9
52 | Cc1cnn(CC(=O)N2CCCN(c3ncccc3C#N)CC2)c1 | -1.08
53 | Cc1cc(N2CCC(N(C)Cc3cc(=O)c(O)co3)CC2)nc(C)n1 | -7
54 | Fc1ccccc1-c1cc(N2[C@@H]3CC[C@H]2CNC3)n2nccc2n1 | -3.67
55 | O=S(=O)(Nc1ccon1)c1cc(Cl)cc2c1OCC2 | 1.46
56 | O=C1CCCN1Cc1nnc2n1CCCN(C(=O)c1ccco1)C2 | 22.7
57 | Cc1cc(C)n(CC2CCCCN2C(=O)c2cnn(C)c2)n1 (stereo not drawn) | 8.99
58 | CCS(=O)(=O)c1ncc(CN(C)Cc2ccccn2)n1CCOC | -5.34
59 | CC(C)COC1CCN(C(=O)c2ccc(C(F)(F)F)[nH]c2=O)CC1 | -4.17
60 | Cc1ccc(CNC(=O)Nc2nncs2)n1C | -7.51
61 | Cc1nc(-c2ccco2)ccc1C(=O)NCCCN1CCOCC1 | -98.3
62 | Cn1c(CCC(=O)N2CCC3(CCCO3)CC2)nc2cccnc21 | -9.63
63 | CC(=O)N(C)CC(=O)Nc1cccc(N2CCN(CC3CC3)CC2)c1 | -7.37
64 | Cc1cc(C)c2cc(CNC(C)C)c3nn(C)c(=O)n3c2c1 | -1.75
65 | O=C(c1ccc(CNC2CCSC2)cc1)N1CCCC1 (stereo not drawn) | -0.303
66 | Cc1nc(Nc2cnccn2)cc(C2CCCN(C(C)C)C2)n1 (stereo not drawn) | -8.23
67 | CNC(=O)c1n[nH]c2c1C(c1cccc3nsnc13)CC(=O)N2 (stereo not drawn) | -3.59
68 | CCOCC1CN(C(=O)Cc2ccccn2)Cc2cn(C)nc21 (stereo not drawn) | -10.7
69 | Cc1nccc(N2C[C@@H](CN3CCCC3)[C@@H](CO)C2)n1 | -6.17

Row | Structure (SMILES) | cytotoxicity at 70.5 h [%]
70 | CN(CCc1cn[nH]c1)Cc1nc(Cc2cccc(F)c2)no1 | 19
71 | CNC(=O)[C@@H](c1ccccc1F)N1CCC[C@H]1C(=O)NC1CCCC1 | -5.2
72 | O=C1CCCCN1CSc1nnnn1-c1ccc(Cl)cc1 | -4.94
73 | CC(C)OCCN(C)C(C)c1cccc(S(N)(=O)=O)c1 (stereo not drawn) | 22.5
74 | Cc1nnc(C(C)N2CCN(Cc3ccc(C(F)(F)F)cc3)CC2)o1 (stereo not drawn) | -1.82
75 | CN1CCC(O)(CCNC(=O)[C@@]23CNC[C@@H]2CN(C2CCCC2)C3)CC1 | 11.4
76 | Cc1ccc2c(n1)N(CCN(C)C)CCN(C(=O)c1ccoc1)C2 | -11.8
77 | Cc1ccccc1CN1CCCN(CCN2CCOC2=O)CC1 | -1.61
78 | O=C(N1CCCC1)N1C[C@H]2CC[C@@]3(N=C(c4ccccc4)NC3=O)[C@H]2C1 | 12.6
79 | CCNC(=O)CS(=O)(=O)NC1CCC(C)CC1 (stereo not drawn) | -14.8
80 | CSc1ccc(-c2nc(CN3CCC(NC(C)=O)C3)c(C)o2)cc1 (stereo not drawn) | -1.58
81 | CC(O)c1cccc(OCc2ccon2)c1 (stereo not drawn) | -2.61
82 | c1ccc(CCNC2CCc3ncnn3C2)nc1 (stereo not drawn) | 3.59
83 | O=C(Cc1ccsc1)N1CCCCC1c1ccn2ccnc2n1 (stereo not drawn) | 8.15
84 | COCC1CCCCN1Cc1nc(-c2ccoc2)oc1C (stereo not drawn) | -1.54
85 | Cc1ncsc1C(=O)NCc1ccnc(OCC(F)(F)F)c1 | -11.3
86 | Cc1ccc(C(=O)N2Cc3c(CN4CCCCC4)nn(C)c3C2)cc1C | -16.2
87 | CCc1ccc(C(=O)NC2CCc3nc(C)cn3C2)o1 (stereo not drawn) | -4.82
88 | N#Cc1ccc(NCC(O)c2ccco2)c(C(F)(F)F)c1 (stereo not drawn) | -6.87
89 | CC(Cn1cccn1)NCc1nc(-c2cccs2)no1 (stereo not drawn) | 3.96
90 | c1csc(-c2nc(CN3CCCC3Cn3cncn3)co2)c1 (stereo not drawn) | -10.5
91 | Cc1cccc(CNCC2(O)CCCN(CC3CCCCC3)C2=O)n1 (stereo not drawn) | -5.28
92 | CCOc1ccc(NS(=O)(=O)c2cc(C)c(C(=O)O)s2)c(C)c1 | -3.91

Row | Structure (SMILES) | cytotoxicity at 70.5 h [%]
93 | CS(=O)(=O)NCc1nnc2n1CCN(Cc1cccs1)CC2 | -4.32
94 | Cc1cc(C)n(CC2CCCCN2CC(=O)N(C)Cc2ccco2)n1 (stereo not drawn) | 6.64
95 | CNC(=O)c1sc(C2CCCC2)nc1C | -5.12
96 | CC(C)N1CCCC1c1cc(C(F)(F)F)[nH]n1 (stereo not drawn) | 0.712
97 | O=C(NCC(F)(F)F)C1CN(C(=O)c2cnccn2)C1 | -9.42
98 | Cc1nc(C2(NCC(=O)NC(=O)Nc3ccccc3)CCCCC2)no1 | -0.595
99 | CC(C)N(CC(N)=O)CC(=O)NCCc1c(F)cccc1F | -1.87
100 | CCCn1c(C)c(CC(=O)N(C)CC(=O)OC)c2c1CC(C)(C)CC2=O | -3.68
101 | c1cnc(N2CCCC3(COCCN(c4nncs4)C3)C2)cn1 (stereo not drawn) | -6.49
102 | CCN1CC(C(=O)NCCOc2ccc3c(c2)OCO3)CC1=O (stereo not drawn) | -1.5
103 | COc1ccc(NC(=O)Cn2nc(C)c(C)cc2=O)cc1OC | 12.7
104 | COCCC1(C(=O)O)CCCN(CC(=O)NCCc2ccccc2)C1 (stereo not drawn) | 27.1
105 | CC(=O)N[C@@H]1CN(C(=O)c2csc(C(C)C)n2)C[C@H]1C(C)C | -7.11
106 | O=C1N(c2ccccc2)C[C@H]2CN(C3CCC3)CCN12 | -3.05
107 | Cn1cccc1C(=O)N1CCc2ncnc(N3CCCC3)c2CC1 | -5.07
108 | CC(C)N(C)C(=O)C1CSCN1S(=O)(=O)c1cc(Cl)ccc1Cl (stereo not drawn) | 11.9
109 | Cc1ccc(C)c(OCCNC(=O)C2CCOC2)c1 (stereo not drawn) | -1.02
110 | COc1ccc2nnc(CCCC(=O)NCc3ccccc3OC)n2n1 | -15.5
111 | COc1ccc(-c2cc(C3CC3)c(C#N)c(N)n2)cc1F | 11.2
112 | Cc1nc(NCCc2ccc(Cl)cc2)cc(C(=O)N2CCCCC2)n1 | 13.8
113 | O=C(c1ccc(-n2ccnn2)cc1)N(CC1CC1)c1cccnc1 | 5.29
